Assay results: article PMC10148881, “Recognition of an Ala-rich C-degron by the E3 ligase Pirh2” (Nature Communications, 2023)
Positions count from the first letter of the chain named. Where two headings read alike, the source gives them in different places. Ends that are not written are not given here. Peptide text beside a SMILES is read from it.

Tests used:
[1] = biological target: T1, Pirh2 (NTD + RING) (Homo sapiens, UniProt Q96PM5); assay: ITC of degron peptides with Pirh2 NTD + RING; format: binding
T1 construct: Pirh2 NTD + RING (residues 1–189); 8xHis-SUMO (N, cleaved yes); made in house; host or cells: E. coli BL21 (DE3)
T1 sequence (Q96PM5 1-189): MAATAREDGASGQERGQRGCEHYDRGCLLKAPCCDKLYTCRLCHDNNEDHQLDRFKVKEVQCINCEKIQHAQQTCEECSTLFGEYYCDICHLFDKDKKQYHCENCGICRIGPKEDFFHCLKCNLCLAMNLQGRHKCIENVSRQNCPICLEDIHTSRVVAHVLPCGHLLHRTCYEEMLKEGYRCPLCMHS
From the text: The DNA fragments corresponding to human full-length Pirh2 (residues 1–261), Pirh2 NTD + RING (residues 1–189), Pirh2 NTD (residues 1–137), Pirh2 RING + CTD (residues 138–261), Pirh2 RING (residues 138–189) and Pirh2 CTD (residues […]) were cloned by seamless cloning into the pET28-MKH8SUMO vector (Addgene Plasmid #79526), which contains an 8× His-SUMO tag followed by a Tobacco etch virus (TEV) cleavage site. The DNA fragment of Pirh2 (residues 15–191)-linker (GSGSG)-polyAla (AAAAAA) was cloned into the pGEX vector, which contains a GST tag followed by a TEV cleavage site. The recombinant plasmids were transformed into E. coli BL21 (DE3) and the expression of the target proteins was induced with 0.2 mM isopropyl β-D-1-thiogalactopyranoside (IPTG) supplemented with 100 μM ZnCl2 at 18 °C overnight. Cells were harvested by centrifugation and resuspended in lysis buffer (20 mM Tris-HCl pH 8.5, 400 mM NaCl, 5% v/v glycerol, 10 μM ZnCl2 and 2 mM β-mercaptoethanol). The cells were lysed by sonication on ice and the lysates were clarified by centrifugation at 14,000 rpm for 40 min at 4 °C. The lysate containing GST tagged Pirh2-linker-polyAla was collected to incubate with GST beads for 1 h, and nonspecifically bound proteins were washed out by lysis buffer. The GST tag was proteolytically cleaved by adding the TEV protease to the GST beads overnight at 4 °C and the TEV protease was removed by passing through the Ni‐NTA column. The other supernatants were collected to incubate with Ni-NTA beads for 1 h at 4 °C. Nonspecifically bound proteins were washed out of Ni-NTA beads by washing buffer (20 mM Tris-HCl pH 8.5, 400 mM NaCl and 25 mM imidazole pH 8.5) and the fusion proteins were eluted by elution buffer (20 mM Tris-HCl pH 8.5, 400 mM NaCl and 300 mM imidazole pH 8.5). The SUMO tag was cleaved by TEV protease with a molar ration of 1: 20 in dialysis buffer (20 mM Tris-HCl pH 8.5 and 300 mM NaCl) at 4 °C overnight. The samples were reloaded onto the Ni-NTA column to remove the cleaved SUMO tag and TEV protease. Finally, all of the acquired proteins were further purified by size exclusion chromatography (Superdex 200 Increase 10/300 GL, GE healthcare), which was pre-equilibrated with gel-filtration buffer (20 mM Tris-HCl pH 7.5, 150 mM NaCl, 10 μM ZnCl2 and 1 mM DTT). Purified proteins were concentrated and stored at −80 °C for later use. Expression and purification of the mutants were performed in the same way as wild-type proteins.
Isothermal titration calorimetry (ITC) measurements were performed at 16 °C using a MicroCal PEAQ-ITC instrument (Malvern Panalytical). Proteins and peptides were prepared in an ITC buffer (20 mM Tris-HCl pH 7.5, 150 mM NaCl and 10 μM Zn^2+). ITC experiments were performed by titrating 1.5 μL (with the exception of the first injection of 0.5 μL) of peptides (0.6–1.0 mM) into cell containing 180–220 μM proteins, with a spacing time of 90 s and a reference power of 10 μcal s^−1. The titration data were analyzed using the one-site binding model from MicroCal PEAQ-ITC Analysis Software version 1.30. All ITC assays were repeated at least three times independently with similar results.

[2] = biological target: T2, full-length Pirh2 (Homo sapiens, UniProt Q96PM5); assay: ITC of degron peptide with full-length Pirh2; details: 16 °C, 20 mM Tris-HCl pH 7.5, 150 mM NaCl, 10 μM Zn2+, one-site binding model, repeated at least three times
T2 construct: human full-length Pirh2 (residues 1–261); 8xHis-SUMO (N, cleaved yes); made in house; host or cells: E. coli BL21 (DE3)
T2 sequence (Q96PM5 1-261): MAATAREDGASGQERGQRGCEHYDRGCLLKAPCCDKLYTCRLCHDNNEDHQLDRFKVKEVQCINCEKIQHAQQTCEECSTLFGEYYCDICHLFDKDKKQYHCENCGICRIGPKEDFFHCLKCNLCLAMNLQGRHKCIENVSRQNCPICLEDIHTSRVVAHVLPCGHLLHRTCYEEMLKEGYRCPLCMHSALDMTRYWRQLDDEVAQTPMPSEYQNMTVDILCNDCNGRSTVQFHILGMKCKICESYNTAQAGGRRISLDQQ
From the text: (§1) The DNA fragments corresponding to human full-length Pirh2 (residues 1–261), Pirh2 NTD + RING (residues 1–189), Pirh2 NTD (residues 1–137), Pirh2 RING + CTD (residues 138–261), Pirh2 RING (residues 138–189) and Pirh2 CTD (residues 187–261) were cloned by seamless cloning into the pET28-MKH8SUMO vector (Addgene Plasmid #79526), which contains an 8× His-SUMO tag followed by a Tobacco etch virus (TEV) cleavage site. The DNA fragment of Pirh2 (residues 15–191)-linker (GSGSG)-polyAla (AAAAAA) was cloned into the pGEX vector, which contains a GST tag followed by a TEV cleavage site. The recombinant plasmids were transformed into E. coli BL21 (DE3) and the expression of the target proteins was induced with 0.2 mM isopropyl β-D-1-thiogalactopyranoside (IPTG) supplemented with 100 μM ZnCl2 at 18 °C overnight. Cells were harvested by centrifugation and resuspended in lysis buffer (20 mM Tris-HCl pH 8.5, 400 mM NaCl, 5% v/v glycerol, 10 μM ZnCl2 and 2 mM β-mercaptoethanol). The cells were lysed by sonication on ice and the lysates were clarified by centrifugation at 14,000 rpm for 40 min at 4 °C. […]
(§2) Isothermal titration calorimetry (ITC) measurements were performed at 16 °C using a MicroCal PEAQ-ITC instrument (Malvern Panalytical). […] The titration data were analyzed using the one-site binding model from MicroCal PEAQ-ITC Analysis Software version 1.30. […]

[3] = biological target: T3, Pirh2 NTD (Homo sapiens, UniProt Q96PM5); assay: ITC of degron peptide with Pirh2 NTD; details: 16 °C, 20 mM Tris-HCl pH 7.5, 150 mM NaCl, 10 μM Zn2+, one-site binding model, repeated at least three times
T3 construct: Pirh2 NTD (residues 1–137); 8xHis-SUMO (N, cleaved yes); made in house; host or cells: E. coli BL21 (DE3)
T3 sequence (Q96PM5 1-137): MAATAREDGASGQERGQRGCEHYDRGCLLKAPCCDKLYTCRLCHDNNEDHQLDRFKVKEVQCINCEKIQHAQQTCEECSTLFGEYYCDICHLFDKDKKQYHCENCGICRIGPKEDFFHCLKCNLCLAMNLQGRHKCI
From the text: as §1, §2

[4] = biological target: T4, Pirh2 R54A (Homo sapiens, UniProt Q96PM5, R54A); assay: ITC of Ala6/C-degron peptide with mutant Pirh2 R54A; format: binding; details: Fig. 4a
T4 construct: Pirh2 NTD + RING (residues 1–189); 8xHis-SUMO (N, cleaved yes); made in house; host or cells: E. coli BL21 (DE3)
T4 sequence (Q96PM5 1-189 R54A): T1 sequence (Q96PM5 1-189) with R54A
From the text: as §1, §2

[5] = biological target: T5, Pirh2 D94A (Homo sapiens, UniProt Q96PM5, D94A); assay: ITC of Ala6/C-degron peptide with mutant Pirh2 D94A; format: binding; details: Fig. 4a
T5 construct: Pirh2 NTD + RING (residues 1–189); 8xHis-SUMO (N, cleaved yes); made in house; host or cells: E. coli BL21 (DE3)
T5 sequence (Q96PM5 1-189 D94A): T1 sequence (Q96PM5 1-189) with D94A
From the text: as §1, §2

[6] = biological target: T6, Pirh2 I107D (Homo sapiens, UniProt Q96PM5, I107D); assay: ITC of Ala6/C-degron peptide with mutant Pirh2 I107D; format: binding; details: Fig. 4a
T6 construct: Pirh2 NTD + RING (residues 1–189); 8xHis-SUMO (N, cleaved yes); made in house; host or cells: E. coli BL21 (DE3)
T6 sequence (Q96PM5 1-189 I107D): T1 sequence (Q96PM5 1-189) with I107D
From the text: as §1, §2

[7] = biological target: T7, Pirh2 S155D (Homo sapiens, UniProt Q96PM5, S155D); assay: ITC of Ala6/C-degron peptide with mutant Pirh2 S155D; format: binding; details: Fig. 4a
T7 construct: Pirh2 NTD + RING (residues 1–189); 8xHis-SUMO (N, cleaved yes); made in house; host or cells: E. coli BL21 (DE3)
T7 sequence (Q96PM5 1-189 S155D): T1 sequence (Q96PM5 1-189) with S155D
From the text: as §1, §2

[8] = ITC, 16 °C, 20 mM Tris-HCl pH 7.5, 150 mM NaCl, 10 μM Zn2+, one-site binding model, repeated at least three times, NB = no detectable binding under our experimental conditions, read-out: KD

Row | Compound | Kd [1, 8] [µM] | also measured
1 | C[C@H](N)C(=O)N[C@@H](C)C(=O)N[C@@H](C)C(=O)N[C@@H](C)C(=O)N[C@@H](C)C(=O)N[C@@H](C)C(=O)O [AAAAAA] | 0.9 | 
2 | YKTSAAIA | 13 | 
3 | YKTSAKAA | 5.5 | 
4 | YKTSATAAAA | 0.5 | 
5 | YKTSAPAA | 0.9 | 
6 | C[C@H](N)C(=O)N[C@@H](C)C(=O)N[C@@H](C)C(=O)N[C@@H](C)C(=O)N[C@@H](C)C(=O)O [AAAAA] | 2.5 | 
7 | YKTSASAA | 3 | 
8 | YKTSAAAAAA [Ala6/C-degron] | 0.5 | Kd [2]: 0.9 µM; Kd [3]: 5.5 µM; Kd [4]: > 100 µM; Kd [5]: 3 µM; Kd [6]: 9.1 µM; Kd [7]: 4.5 µM
9 | C[C@H](N)C(=O)N[C@@H](C)C(=O)N[C@@H](C)C(=O)N[C@@H](C)C(=O)O [AAAA] (H-AAAA-OH) | 7.4 | 
10 | YKTSALAA | 2.8 | 
11 | YKTSAAVA | 13 | 
12 | YKTSTAAAAA |  | Kd [1]: 0.5 µM
13 | C[C@H](N)C(=O)N[C@@H](C)C(=O)N[C@@H](C)C(=O)O [AAA] | > 100 | 
14 | YKTSSAAA | 4.5 | 
